# Patent publication US20040142317A1, “Use of amino acid transporter atbo,+ as a delivery system for drugs and prodrugs” (priority 2003, published 2004)
# “And” between values parts separate entries of the source, which are not always exact repeats. Identical values can stand only once.
# Columns and labels:
# mouse ATB^0,+ [1] = target: T1, mouse ATB^0,+ (Mus musculus, UniProt Q9JMA9)
# T1 sequence (Q9JMA9 1-638): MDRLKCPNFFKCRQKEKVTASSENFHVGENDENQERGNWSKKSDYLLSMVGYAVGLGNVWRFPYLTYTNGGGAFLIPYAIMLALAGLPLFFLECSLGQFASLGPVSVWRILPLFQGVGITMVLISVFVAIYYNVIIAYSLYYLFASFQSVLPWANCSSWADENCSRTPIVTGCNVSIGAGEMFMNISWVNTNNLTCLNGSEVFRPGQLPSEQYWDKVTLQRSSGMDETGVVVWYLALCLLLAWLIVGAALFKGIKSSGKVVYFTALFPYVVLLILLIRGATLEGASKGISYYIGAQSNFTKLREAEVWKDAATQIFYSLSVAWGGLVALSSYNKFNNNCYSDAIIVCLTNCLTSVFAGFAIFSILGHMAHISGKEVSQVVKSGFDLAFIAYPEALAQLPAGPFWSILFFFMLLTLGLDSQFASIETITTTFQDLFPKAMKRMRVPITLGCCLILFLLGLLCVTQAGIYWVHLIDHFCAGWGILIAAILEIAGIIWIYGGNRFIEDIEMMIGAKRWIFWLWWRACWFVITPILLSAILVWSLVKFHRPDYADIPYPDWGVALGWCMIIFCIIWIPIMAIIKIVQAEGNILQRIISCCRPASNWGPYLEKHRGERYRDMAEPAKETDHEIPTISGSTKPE
# mouse ATB^0,+ [2] = target: T1, mouse ATB^0,+; details: for Current in X. laevis oocytes / inward current in the absence of Cl− (sodium gluconate) / inward current in the absence of Na+ (NMDG chloride): compound 1 mM; for Current in X. laevis oocytes: NaCl medium pH 7.5, voltage clamp; for Current in X. laevis oocytes (nA), D-isomer: D-amino acid 1 mM; for Current in X. laevis oocytes (nA), D-isomer / Current in X. laevis oocytes (nA), L-isomer: NaCl pH 7.5; for Current in X. laevis oocytes (nA), L-isomer: L-amino acid 1 mM; for K0.5 (concentration inducing half-maximal current; Michaelis-Menten constant): oocytes, membrane potential −50 mV
# mouse ATB^0,+ [3] = target: T1, mouse ATB^0,+; details: for effect on ATB^0,+-mediated glycine transport (in words): glycine 10 μM, HRPE cells
# ATB^0 = target: T2, ATB^0 (Homo sapiens, UniProt Q15758); experiment: cell-based
# T2 sequence (Q15758 1-541): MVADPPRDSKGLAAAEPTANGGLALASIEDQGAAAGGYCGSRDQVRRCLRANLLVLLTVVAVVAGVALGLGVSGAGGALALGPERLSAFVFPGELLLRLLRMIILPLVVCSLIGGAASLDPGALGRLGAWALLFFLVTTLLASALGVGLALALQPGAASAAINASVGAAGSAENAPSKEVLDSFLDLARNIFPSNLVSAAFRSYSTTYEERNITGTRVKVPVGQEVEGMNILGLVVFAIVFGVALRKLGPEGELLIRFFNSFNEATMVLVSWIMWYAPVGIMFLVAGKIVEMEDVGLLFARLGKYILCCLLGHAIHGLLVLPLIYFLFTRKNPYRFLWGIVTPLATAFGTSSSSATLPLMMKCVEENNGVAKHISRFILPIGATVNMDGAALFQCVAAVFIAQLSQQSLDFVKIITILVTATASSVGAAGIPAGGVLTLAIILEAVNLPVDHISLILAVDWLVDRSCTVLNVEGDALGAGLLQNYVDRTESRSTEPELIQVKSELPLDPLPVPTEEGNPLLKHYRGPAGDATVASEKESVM
# mouse ATB^0,+ [4] = target: T1, mouse ATB^0,+; experiment: Inhibition of ATB0,+-specific [3H]-L-NNA transport by amino acids in HRPE cells; assay type: cell-based; details: amino acids 5 mM; [3H]-L-NNA 10 μM
# mouse ATB^0,+ [5] = target: T1, mouse ATB^0,+; experiment: Transport of radiolabeled substrates in HRPE cells expressing cloned mouse ATB0,+; assay type: cell-based; details: HRPE cells
structure (smiles),measurement,setting,value
CNC(=N)NCCC[C@H](N)C(=O)O [L-NMMA],activity,"mouse ATB^0,+ [1]",36%
same,Current in X. laevis oocytes,"mouse ATB^0,+ [2]",411 ± 76 nA
"CC[C@H](C)[C@H](N)C(=O)O [D-Isoleucine, Isoleucine]","Current in X. laevis oocytes (nA), D-isomer","mouse ATB^0,+ [2]",4 ± 4 nA
"CSCC[C@H](N)C(=O)O [L-Methionine, Methionine]","Current in X. laevis oocytes (nA), L-isomer","mouse ATB^0,+ [2]",278 ± 26 nA
"NCCCC(=O)O [γ-Aminobutyrate, γ-aminobutyrate]","effect on ATB^0,+-mediated glycine transport (in words)","mouse ATB^0,+ [3]",little or no effect
N[C@@H](Cc1ccccc1)C(=O)O [Phenylalanine],"Current in X. laevis oocytes (nA), L-isomer","mouse ATB^0,+ [2]",275 ± 58 nA
same,Ki,ATB^0,4230 ± 999 µM
same,Ki,"mouse ATB^0,+ [3]",68.6 ± 2.4 µM
NC(=S)NCCC[C@H](N)C(=O)O [L-TC],Current in X. laevis oocytes,"mouse ATB^0,+ [2]",497 ± 104 nA
"N=C(N)NCCC[C@H](N)C(=O)O [D-Arginine, Arginine]","Current in X. laevis oocytes (nA), D-isomer","mouse ATB^0,+ [2]",6 ± 1 nA
NC(=NCCC[C@H](N)C(=O)OCc1ccccc1)N[N+](=O)[O-] [L-NABE],Current in X. laevis oocytes,"mouse ATB^0,+ [2]",16 ± 2 nA
NC(=O)NCCC[C@H](N)C(=O)O [Citrulline],Current in X. laevis oocytes,"mouse ATB^0,+ [2]",498 ± 114 nA
N[C@@H](CCC(=O)OCc1ccccc1)C(=O)O [L-Glutamate γ-benzyl ester],IC50,"mouse ATB^0,+ [3]",156 ± 12 µM
"C[C@@H](N)C(=O)O [D-Alanine, D-alanine]","Current in X. laevis oocytes (nA), D-isomer","mouse ATB^0,+ [2]",402 ± 39 nA
CC(=N)NCCC[C@H](N)C(=O)O [L-NIO],Current in X. laevis oocytes,"mouse ATB^0,+ [2]",71 ± 16 nA
same,K0.5 (concentration inducing half-maximal current; Michaelis-Menten constant),"mouse ATB^0,+ [2]",2.24 ± 0.35 mM
N[C@@H](Cc1c[nH]c2ccccc12)C(=O)O [Tryptophan],"Current in X. laevis oocytes (nA), L-isomer","mouse ATB^0,+ [2]",112 ± 4 nA
NCCC[C@H](N)C(=O)O [Ornithine],Current in X. laevis oocytes,"mouse ATB^0,+ [2]",131 ± 27 nA
"CC(C)[C@H](N)C(=O)O [D-Valine, Valine]","Current in X. laevis oocytes (nA), D-isomer","mouse ATB^0,+ [2]",4 ± 3 nA
"CC(C)C[C@@H](N)C(=O)O [D-Leucine, D-leucine]","Current in X. laevis oocytes (nA), D-isomer","mouse ATB^0,+ [2]",161 ± 25 nA
CC[C@H](C)[C@H](N)C(=O)O [Isoleucine],"Current in X. laevis oocytes (nA), L-isomer","mouse ATB^0,+ [2]",117 ± 16 nA
N[C@@H](Cc1c[nH]cn1)C(=O)O [Histidine],"Current in X. laevis oocytes (nA), L-isomer","mouse ATB^0,+ [2]",410 ± 64 nA
"NCCCC[C@H](N)C(=O)O [D-Lysine, Lysine]","Current in X. laevis oocytes (nA), D-isomer","mouse ATB^0,+ [2]",9 ± 9 nA
N=C(N)NCCC[C@H](N)C(=O)O [Arginine],"inhibition of ATB^0,+-specific L-NNA transport","mouse ATB^0,+ [4]",inhibition
same,activity,"mouse ATB^0,+ [1]",30%
same,"Current in X. laevis oocytes (nA), L-isomer","mouse ATB^0,+ [2]",339 ± 35 nA
same,inward current in the absence of Cl− (sodium gluconate),"mouse ATB^0,+ [2]",No measurable current
same,inward current in the absence of Na+ (NMDG chloride),"mouse ATB^0,+ [2]",No measurable current
same,Current in X. laevis oocytes,"mouse ATB^0,+ [2]",382 ± 57 nA
"N[C@H](Cc1c[nH]c2ccccc12)C(=O)O [D-Tryptophan, D-tryptophan]","Current in X. laevis oocytes (nA), D-isomer","mouse ATB^0,+ [2]",157 ± 23 nA
C[C@@H](O)[C@H](N)C(=O)O [Threonine],"Current in X. laevis oocytes (nA), L-isomer","mouse ATB^0,+ [2]",233 ± 12 nA
N[C@@H](CO)C(=O)O [Serine],"inhibition of ATB^0,+-specific L-NNA transport","mouse ATB^0,+ [4]",inhibition
same,"Current in X. laevis oocytes (nA), L-isomer","mouse ATB^0,+ [2]",470 ± 42 nA
"N[C@H](Cc1c[nH]cn1)C(=O)O [D-Histidine, D-histidine]","Current in X. laevis oocytes (nA), D-isomer","mouse ATB^0,+ [2]",29 ± 6 nA
CSC(N)=NCCC[C@H](N)C(=O)O [L-MTC],inward current in the absence of Cl− (sodium gluconate),"mouse ATB^0,+ [2]",no measurable currents
same,inward current in the absence of Na+ (NMDG chloride),"mouse ATB^0,+ [2]",no measurable currents
same,Current in X. laevis oocytes,"mouse ATB^0,+ [2]",116±34 nA and 118 ± 34 nA
same,K0.5 (concentration inducing half-maximal current; Michaelis-Menten constant),"mouse ATB^0,+ [2]",1.36 ± 0.08 mM
"C[C@H](O)[C@@H](N)C(=O)O [D-Threonine, D-threonine]","Current in X. laevis oocytes (nA), D-isomer","mouse ATB^0,+ [2]",41 ± 5 nA
N=C(N)NOCC[C@H](N)C(=O)O [L-Canavanine],activity,"mouse ATB^0,+ [1]",24%
same,inhibition,"mouse ATB^0,+ [1]",75%
same,Current in X. laevis oocytes,"mouse ATB^0,+ [2]",269 ± 73 nA
"NC(=O)C[C@H](N)C(=O)O [Asparagine, L-Asparagine]","Current in X. laevis oocytes (nA), L-isomer","mouse ATB^0,+ [2]",394 ± 67 nA
CC(=N)NCCCC[C@H](N)C(=O)O [L-NIL],inward current in the absence of Cl− (sodium gluconate),"mouse ATB^0,+ [2]",~10 nA
same,inward current in the absence of Na+ (NMDG chloride),"mouse ATB^0,+ [2]",no measurable inward current
same,Current in X. laevis oocytes,"mouse ATB^0,+ [2]",89 ± 18 nA
same,K0.5 (concentration inducing half-maximal current; Michaelis-Menten constant),"mouse ATB^0,+ [2]",2.72 ± 0.29 mM
"NC(=O)CC[C@@H](N)C(=O)O [D-Glutamine, D-glutamine]","Current in X. laevis oocytes (nA), D-isomer","mouse ATB^0,+ [2]",16 ± 11 nA
"CSCC[C@@H](N)C(=O)O [D-Methionine, D-methionine]","Current in X. laevis oocytes (nA), D-isomer","mouse ATB^0,+ [2]",213 ± 15 nA
"CC(C)[C@H](N)C(=O)OCCOCn1cnc2c(=O)[nH]c(N)nc21 [valacyclovir, L-valine α-ester of acyclovir]","transport in ATB^0,+-expressing cells versus vector-transfected cells (in words)","mouse ATB^0,+ [5]; [14C]phenylglycine 10 μM or [8-3H]-valacyclovir 1.25 μM",three times higher
"N[C@H](Cc1ccccc1)C(=O)O [D-Phenylalanine, D-phenylalanine]","Current in X. laevis oocytes (nA), D-isomer","mouse ATB^0,+ [2]",24 ± 24 nA
"NC(=O)C[C@H](N)C(=O)O [D-Asparagine, Asparagine]","Current in X. laevis oocytes (nA), D-isomer","mouse ATB^0,+ [2]",3 ± 2 nA
CC(C)C[C@H](N)C(=O)O [Leucine],"Current in X. laevis oocytes (nA), L-isomer","mouse ATB^0,+ [2]",187 ± 14 nA
NCC(=O)O [Glycine],Hill coefficient for Na+ activation of substrate transport,"mouse ATB^0,+ [5]",2.0±0.1
same,K0.5 for Cl− in substrate transport,"mouse ATB^0,+ [5]",18 ± 8 mM
same,K0.5 for Na+ in substrate transport,"mouse ATB^0,+ [5]",25 ± 1 mM
same,"Michaelis-Menten constant (Kt) of transport via mouse ATB^0,+","mouse ATB^0,+ [5]",210 ± 18 µM
same,"transport in ATB^0,+ cDNA-transfected cells compared to vector-transfected cells","mouse ATB^0,+ [5]; radiolabeled substrate",38 fold and 30 fold
same,"inhibition of ATB^0,+-specific L-NNA transport","mouse ATB^0,+ [4]",inhibition
CN(C)C(N)=NCCC[C@H](N)C(=O)O [L-NDMA],Current in X. laevis oocytes,"mouse ATB^0,+ [2]",85 ± 15 nA
N[C@@H](CC(=O)OCc1ccccc1)C(=O)O [L-Aspartate β-benzyl ester],IC50,"mouse ATB^0,+ [3]",70 ± 8 µM
same,potency relative to benzyl ester of glutamate,"mouse ATB^0,+ [3]; from IC50 values",about 2 fold
C[N+](C)(C)CC(=O)O [betaine],"effect on ATB^0,+-mediated glycine transport (in words)","mouse ATB^0,+ [3]",little or no effect
"N=C(NCCC[C@H](N)C(=O)O)N[N+](=O)[O-] [L-NNA, N^ω-nitro-L-arginine]","Michaelis-Menten constant (Kt) of transport via mouse ATB^0,+","mouse ATB^0,+ [5]; radiolabeled substrate",750 ± 100 µM
same,"transport in ATB^0,+ cDNA-transfected cells compared to vector-transfected cells","mouse ATB^0,+ [5]; radiolabeled substrate",4 fold
same,activity,"mouse ATB^0,+ [1]",21%
same,Current in X. laevis oocytes,"mouse ATB^0,+ [2]",200 ± 92 nA
same,IC50,"mouse ATB^0,+ [3]",560 ± 40 µM
CNC(C)(C)C(=O)O [MeAIB],"inhibition of ATB^0,+-specific L-NNA transport","mouse ATB^0,+ [4]",did not inhibit
NCCCC[C@H](N)C(=O)O [Lysine],"Current in X. laevis oocytes (nA), L-isomer","mouse ATB^0,+ [2]",321 ± 34 nA
same,Current in X. laevis oocytes,"mouse ATB^0,+ [2]",545 ± 95 nA
CCNC(=N)NCCC[C@H](N)C(=O)O [L-NMEA],Current in X. laevis oocytes,"mouse ATB^0,+ [2]",138 ± 16 nA
"NC(=O)CC[C@H](N)C(=O)O [Glutamine, L-Glutamine]","Current in X. laevis oocytes (nA), L-isomer","mouse ATB^0,+ [2]",453 ± 53 nA
"CC(C)[C@H](N)C(=O)O [L-Valine, Valine]","Current in X. laevis oocytes (nA), L-isomer","mouse ATB^0,+ [2]",310 ± 24 nA
COC(=O)[C@@H](N)CCCNC(=N)N[N+](=O)[O-] [L-NAME],Current in X. laevis oocytes,"mouse ATB^0,+ [2]",11 ± 2 nA
